Data reported in ChEMBL document CHEMBL4673219, “Novel 5,6-disubstituted pyrrolo[2,3-d]pyrimidine derivatives as broad spectrum antiproliferative agents: Synthesis, cell based assays, kinase profile and molecular docking study” (Bioorg Med Chem, 2018).
Values joined by “and” are separate entries in the source; they are usually repeats but may differ in a detail not shown here. Equal values may be shown once.

Assays:
Malme-3M = assay: Growth inhibition of human Malme-3M cells assessed as growth percentage at 10 uM incubated for 48 hrs by sulforhodamine B assay relative to control; type: functional; conditions: read-out: Activity
786-0 = assay: Growth inhibition of human 786-0 cells incubated for 48 hrs by sulforhodamine B assay; type: functional
SNB-75 [1] = assay: Growth inhibition of human SNB-75 cells incubated for 48 hrs by sulforhodamine B assay; type: functional
K562 = assay: Growth inhibition of human K562 cells assessed as growth percentage at 0.1 uM incubated for 48 hrs by sulforhodamine B assay relative to control; type: functional; conditions: read-out: Activity
[2] = molecular target: High affinity nerve growth factor receptor (Homo sapiens, UniProt P04629); assay: Inhibition of human Trk-A using myelin basic protein as substrate incubated for 40 mins in presence of [gamma33P]ATP by scintillation counting method
HOP-62 [3] = assay: Growth inhibition of human HOP-62 cells incubated for 48 hrs by sulforhodamine B assay; type: functional
HOP-62 [4] = assay: Growth inhibition of human HOP-62 cells assessed as growth percentage at 0.1 uM incubated for 48 hrs by sulforhodamine B assay relative to control; type: functional; conditions: read-out: Activity
HCT-15 [5] = assay: Growth inhibition of human HCT-15 cells assessed as growth percentage at 1 uM incubated for 48 hrs by sulforhodamine B assay relative to control; type: functional; conditions: read-out: Activity
CAKI-1 [6] = assay: Growth inhibition of human CAKI-1 cells assessed as growth percentage at 0.01 uM incubated for 48 hrs by sulforhodamine B assay relative to control; type: functional; conditions: read-out: Activity
NCI/ADR-RES = assay: Growth inhibition of human NCI/ADR-RES cells assessed as growth percentage at 1 uM incubated for 48 hrs by sulforhodamine B assay relative to control; type: functional; conditions: read-out: Activity
SK-MEL-5 = assay: Growth inhibition of human SK-MEL-5 cells incubated for 48 hrs by sulforhodamine B assay; type: functional; conditions: for GI50 / TGI: SK-MEL-5; for CC50: read-out: LC50 (the source's name)
MCF7 = assay: Antiproliferative activity against human MCF7 cells assessed as cell growth inhibition at 10 uM measured after 72 hrs by MTT assay relative to control; type: functional; conditions: read-out: GI
PC-3 = assay: Growth inhibition of human PC-3 cells incubated for 48 hrs by sulforhodamine B assay; type: functional; conditions: for CC50: read-out: LC50 (the source's name)
OVCAR-8 = assay: Growth inhibition of human OVCAR-8 cells assessed as growth percentage at 0.1 uM incubated for 48 hrs by sulforhodamine B assay relative to control; type: functional; conditions: read-out: Activity
HCC 2998 = assay: Growth inhibition of human HCC 2998 cells assessed as growth percentage at 10 uM incubated for 48 hrs by sulforhodamine B assay relative to control; type: functional; conditions: read-out: Activity
MDA-MB-468 = assay: Growth inhibition of human MDA-MB-468 cells assessed as growth percent at 0.1 uM incubated for 48 hrs by sulforhodamine B assay relative to control; type: functional; conditions: read-out: Activity
NCI-H322M = assay: Growth inhibition of human NCI-H322M cells assessed as growth percentage at 0.1 uM incubated for 48 hrs by sulforhodamine B assay relative to control; type: functional; conditions: read-out: Activity
SNB-75 [7] = assay: Growth inhibition of human SNB-75 cells assessed as growth percentage at 1 uM incubated for 48 hrs by sulforhodamine B assay relative to control; type: functional; conditions: read-out: Activity
MOLT-4 = assay: Growth inhibition of human MOLT-4 cells assessed as growth percentage at 10 uM incubated for 48 hrs by sulforhodamine B assay relative to control; type: functional; conditions: read-out: Activity
NCI-H460 [8] = assay: Growth inhibition of human NCI-H460 cells incubated for 48 hrs by sulforhodamine B assay; type: functional
LOX IMVI [9] = assay: Growth inhibition of human LOX IMVI cells incubated for 48 hrs by sulforhodamine B assay; type: functional
SF-268 = assay: Growth inhibition of human SF-268 cells assessed as growth percentage at 0.1 uM incubated for 48 hrs by sulforhodamine B assay relative to control; type: functional; conditions: read-out: Activity
UACC-257 = assay: Growth inhibition of human UACC-257 cells assessed as growth percentage at 1 uM incubated for 48 hrs by sulforhodamine B assay relative to control; type: functional; conditions: read-out: Activity
SW-620 = assay: Growth inhibition of human SW-620 cells assessed as growth percentage at 10 uM incubated for 48 hrs by sulforhodamine B assay relative to control; type: functional; conditions: read-out: Activity
MDA-MB-435 = assay: Growth inhibition of human MDA-MB-435 cells assessed as growth percentage at 10 uM incubated for 48 hrs by sulforhodamine B assay relative to control; type: functional; conditions: read-out: Activity
NCI-H460 [10] = assay: Growth inhibition of human NCI-H460 cells assessed as growth percentage at 100 uM incubated for 48 hrs by sulforhodamine B assay relative to control; type: functional; conditions: read-out: Activity
M14 = assay: Growth inhibition of human M14 cells assessed as growth percentage at 10 uM incubated for 48 hrs by sulforhodamine B assay relative to control; type: functional; conditions: read-out: Activity
HCT-15 [11] = assay: Growth inhibition of human HCT-15 cells assessed as growth percentage at 0.01 uM incubated for 48 hrs by sulforhodamine B assay relative to control; type: functional; conditions: read-out: Activity
TK-10 = assay: Growth inhibition of human TK-10 cells assessed as growth percentage at 10 uM incubated for 48 hrs by sulforhodamine B assay relative to control; type: functional; conditions: read-out: Activity
HOP-92 = assay: Growth inhibition of human HOP-92 cells assessed as growth percentage at 0.01 uM incubated for 48 hrs by sulforhodamine B assay relative to control; type: functional; conditions: read-out: Activity
UO-31 = assay: Growth inhibition of human UO-31 cells assessed as growth percentage at 0.1 uM incubated for 48 hrs by sulforhodamine B assay relative to control; type: functional; conditions: read-out: Activity
SR = assay: Growth inhibition of human SR cells assessed as growth percentage at 1 uM incubated for 48 hrs by sulforhodamine B assay relative to control; type: functional; conditions: read-out: Activity
OVCAR-3 = assay: Growth inhibition of human OVCAR-3 cells assessed as growth percentage at 100 uM incubated for 48 hrs by sulforhodamine B assay relative to control; type: functional; conditions: read-out: Activity
OVCAR-4 = assay: Growth inhibition of human OVCAR-4 cells assessed as growth percentage at 1 uM incubated for 48 hrs by sulforhodamine B assay relative to control; type: functional; conditions: read-out: Activity
RPMI-8226 = assay: Growth inhibition of human RPMI-8226 cells assessed as growth percentage at 10 uM incubated for 48 hrs by sulforhodamine B assay relative to control; type: functional; conditions: read-out: Activity
CAKI-1 [12] = assay: Growth inhibition of human CAKI-1 cells assessed as growth percentage at 0.1 uM incubated for 48 hrs by sulforhodamine B assay relative to control; type: functional; conditions: read-out: Activity
LOX IMVI [13] = assay: Growth inhibition of human LOX IMVI cells assessed as growth percentage at 100 uM incubated for 48 hrs by sulforhodamine B assay relative to control; type: functional; conditions: read-out: Activity
[14] = Cytotoxicity against human HFF-1 cells assessed as cell growth inhibition by MTT assay; type: cell-based

Chain of High affinity nerve growth factor receptor (P04629 whole entry): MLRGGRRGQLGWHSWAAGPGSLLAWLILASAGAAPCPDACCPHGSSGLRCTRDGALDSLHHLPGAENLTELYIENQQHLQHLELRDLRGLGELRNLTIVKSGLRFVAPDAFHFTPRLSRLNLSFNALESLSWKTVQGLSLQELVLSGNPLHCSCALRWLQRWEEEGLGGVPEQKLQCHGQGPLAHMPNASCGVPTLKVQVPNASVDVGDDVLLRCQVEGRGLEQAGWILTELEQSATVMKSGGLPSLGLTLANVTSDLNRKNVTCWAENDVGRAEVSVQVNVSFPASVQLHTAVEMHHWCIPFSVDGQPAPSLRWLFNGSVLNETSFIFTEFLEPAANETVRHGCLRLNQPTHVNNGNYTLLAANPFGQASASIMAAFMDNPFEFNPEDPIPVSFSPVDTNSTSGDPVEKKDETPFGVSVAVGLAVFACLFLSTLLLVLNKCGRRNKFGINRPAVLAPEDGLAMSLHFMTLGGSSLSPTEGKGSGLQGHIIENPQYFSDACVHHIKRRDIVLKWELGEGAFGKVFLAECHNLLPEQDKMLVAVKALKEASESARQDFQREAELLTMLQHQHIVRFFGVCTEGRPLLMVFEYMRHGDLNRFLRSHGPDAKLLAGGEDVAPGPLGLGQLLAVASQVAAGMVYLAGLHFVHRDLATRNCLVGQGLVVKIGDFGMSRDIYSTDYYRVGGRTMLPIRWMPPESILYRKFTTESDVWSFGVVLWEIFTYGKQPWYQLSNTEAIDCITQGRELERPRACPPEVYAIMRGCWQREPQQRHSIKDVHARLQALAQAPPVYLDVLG

## CCCCCCCC(=O)Nc1nc2[nH]c(CN3CCN(Cc4cccc(F)c4)CC3)c(CN3CCN(Cc4cccc(F)c4)CC3)c2c(=O)[nH]1
Malme-3M
  growth at 10 µM: -83.1%
786-0
  GI50: 1540 nM
  LC50 (concentration killing 50% of cells): 5670 nM
  TGI: 2950 nM
SNB-75 [1]
  GI50: 1340 nM
  LC50 (lethal concentration, 50% cell kill): 5280 nM
  TGI: 2660 nM
K562
  growth at 0.1 µM: 87%
[2]
  IC50: 2250 nM
HOP-62 [3]
  GI50: 1420 nM
  TGI: 2850 nM
HOP-62 [3]; read-out: LC50 (the source's name)
  CC50: 5700 nM
HOP-62 [4]
  growth at 0.1 µM: 95%
HCT-15 [5]
  growth at 1 µM: 1%
CAKI-1 [6]
  growth at 0.01 µM: 92%
NCI/ADR-RES
  growth at 1 µM: 79%
SK-MEL-5; Homo sapiens
  GI50: 1570 nM
  TGI: 3030 nM
SK-MEL-5; Homo sapiens, SK-MEL-5, 48 h
  CC50: 5870 nM
MCF7
  inhibition of growth at 10 µM: 94.8%
PC-3
  GI50: 1300 nM
  TGI: 2670 nM
  CC50: 5470 nM
OVCAR-8
  growth at 0.1 µM: 103%
HCC 2998
  growth at 10 µM: -81.8%
MDA-MB-468
  growth at 0.1 µM: 95%
NCI-H322M
  growth at 0.1 µM: 92%
SNB-75 [7]
  growth at 1 µM: 71%
MOLT-4
  growth at 10 µM: -40%
NCI-H460 [8]; 48 h
  GI50: 380 nM
NCI-H460 [8]; Homo sapiens, NCI-H460
  LC50: 4310 nM
  TGI: 1300 nM
NCI-H460 [8]; Homo sapiens, NCI-H460, 48 h
  GI50: 383 nM
LOX IMVI [9]
  GI50: 200 nM
  LC50 (concentration killing 50% of cells): 8870 nM and 890 nM
  TGI: 420 nM
LOX IMVI [9]; Homo sapiens, LOX IMVI
  GI50: 195 nM
  TGI: 416 nM
SF-268
  growth at 0.1 µM: 95%
UACC-257
  growth at 1 µM: -48%
SW-620
  growth at 10 µM: -78.5%
MDA-MB-435
  growth at 10 µM: -98.1%
NCI-H460 [10]
  growth at 100 µM: -85%
M14
  growth at 10 µM: -91.3%
HCT-15 [11]
  growth at 0.01 µM: 98%
TK-10
  growth at 10 µM: -65%
HOP-92
  growth at 0.01 µM: 90%
UO-31
  growth at 0.1 µM: 84%
SR
  growth at 1 µM: -31%
OVCAR-3
  growth at 100 µM: -73%
OVCAR-4
  growth at 1 µM: 63%
RPMI-8226
  growth at 10 µM: -47.3%
CAKI-1 [12]
  growth at 0.1 µM: 85%
LOX IMVI [13]
  growth at 100 µM: -75%
[14]
  GI50: > 10000 nM

## Nc1nc2[nH]c(CN3CCN(c4cc(Cl)cc(Cl)c4)CC3)c(CN3CCN(c4cc(Cl)cc(Cl)c4)CC3)c2c(=O)[nH]1
Malme-3M
  growth at 10 µM: 74.3%
786-0
  GI50: 1570 nM
  TGI: 3180 nM
SNB-75 [1]
  GI50: 1420 nM
  TGI: 2740 nM
K562
  growth at 0.1 µM: 96%
[2]
  IC50: 12400 nM
HOP-62 [3]
  GI50: 1670 nM
  TGI: 3450 nM
HOP-62 [4]
  growth at 0.1 µM: 99%
HCT-15 [5]
  growth at 1 µM: 94%
CAKI-1 [6]
  growth at 0.01 µM: 87%
NCI/ADR-RES
  growth at 1 µM: 102%
SK-MEL-5; 48 h
  CC50: 2890 nM
SK-MEL-5; Homo sapiens
  GI50: 1630 nM
  TGI: 3070 nM
SK-MEL-5; Homo sapiens, SK-MEL-5, 48 h
  CC50: 5760 nM
MCF7
  inhibition of growth at 10 µM: 82.5%
PC-3
  GI50: 1760 nM
  TGI: 3890 nM
  CC50: 8610 nM
OVCAR-8
  growth at 0.1 µM: 97%
HCC 2998
  growth at 10 µM: 24%
MDA-MB-468
  growth at 0.1 µM: 94%
NCI-H322M
  growth at 0.1 µM: 102%
SNB-75 [7]
  growth at 1 µM: 76%
MOLT-4
  growth at 10 µM: 23.6%
NCI-H460 [8]; Homo sapiens, NCI-H460
  TGI: 3940 nM
NCI-H460 [8]; Homo sapiens, NCI-H460, 48 h
  GI50: 1960 nM
LOX IMVI [9]; Homo sapiens, LOX IMVI
  GI50: 1940 nM
  TGI: 3570 nM
SF-268
  growth at 0.1 µM: 102%
UACC-257
  growth at 1 µM: 93%
SW-620
  growth at 10 µM: -16.3%
MDA-MB-435
  growth at 10 µM: 8.61%
NCI-H460 [10]
  growth at 100 µM: -58%
M14
  growth at 10 µM: 79.7%
HCT-15 [11]
  growth at 0.01 µM: 98%
TK-10
  growth at 10 µM: 77.1%
HOP-92
  growth at 0.01 µM: 85%
UO-31
  growth at 0.1 µM: 92%
SR
  growth at 1 µM: 67%
OVCAR-3
  growth at 100 µM: -84%
OVCAR-4
  growth at 1 µM: 83%
RPMI-8226
  growth at 10 µM: 38.4%
CAKI-1 [12]
  growth at 0.1 µM: 90%
LOX IMVI [13]
  growth at 100 µM: -35%
[14]
  GI50: > 10000 nM
